Assay results from publication PMC7222207, “Characterization of a CholesteroNitrone (ISQ-201), a Novel Drug Candidate for the Treatment of Ischemic Stroke” (Antioxidants, 2020).

Test system: transient middle cerebral artery occlusion
Assay: Transient focal cerebral ischemia (tMCAO), grip strength test
Format: in vivo, male C57BL/6 mice
Conditions: mice, 0.05 mg/kg or 0.1 mg/kg ip at onset of reperfusion, 24 and 48 h after treatment
Experimental: Transient occlusion of the distal branch of the middle cerebral artery (tMCAO) was induced in male C57BL/6 mice (9–11 weeks old, Charles River), as described previously. Mice were anesthetized with 4% isoflurane for induction and 1.5–2% isoflurane for maintenance (in 79% N2/21% O2). After drilling a small hole on the temporal bone at the level of the distal portion of the middle cerebral artery (MCA), the artery was compressed for 60 min, with a 30-G needle by using a micromanipulator. Body temperature was maintained between 36.5–37.5 °C and cerebral blood flow was monitored using laser-Doppler flowmetry to confirm MCA occlusion. Buprenorphine (0.05–0.1 mg/kg) was administered subcutaneously immediately before the procedure. A total of 33 mice were subjected to tMCAO, according to the study design. A power analysis was performed to determine the sample size (significance level set at 0.05, and the power set at 0.8 (80%)), which identified the need for 8 mice to be included in each experimental group. […]
Neurobehavioral studies were performed to evaluate ischemic outcomes and monitor motor function after focal ischemia. […] A total of six trials were conducted for each test and the strength value (expressed in grams) was calculated as the mean of all six trials.

CC(C)[C@H]1CC[C@H]2[C@@H]3CCC4=C/C(=[N+](\C)[O-])CC[C@]4(C)[C@H]3CC[C@]12C [ISQ-201]
motor deficit (grip strength) vs vehicle: significant decrease
